Molecules are shown by their SMILES.

For the experiment, the target named is interaction between p53 and MDM2 proteins (recombinant GST-tagged MDM2) (Homo sapiens, UniProt Q00987). The experiment in a line: ELISA of inhibition of the interaction between p53 and MDM2 (GST-tagged MDM2 binding to immobilized p53-like peptide). Particulars: recombinant GST-tagged MDM2 / biotinylated p53-like peptide.
interaction between p53 and MDM2 proteins (recombinant GST-tagged MDM2), sequence (Q00987 whole entry): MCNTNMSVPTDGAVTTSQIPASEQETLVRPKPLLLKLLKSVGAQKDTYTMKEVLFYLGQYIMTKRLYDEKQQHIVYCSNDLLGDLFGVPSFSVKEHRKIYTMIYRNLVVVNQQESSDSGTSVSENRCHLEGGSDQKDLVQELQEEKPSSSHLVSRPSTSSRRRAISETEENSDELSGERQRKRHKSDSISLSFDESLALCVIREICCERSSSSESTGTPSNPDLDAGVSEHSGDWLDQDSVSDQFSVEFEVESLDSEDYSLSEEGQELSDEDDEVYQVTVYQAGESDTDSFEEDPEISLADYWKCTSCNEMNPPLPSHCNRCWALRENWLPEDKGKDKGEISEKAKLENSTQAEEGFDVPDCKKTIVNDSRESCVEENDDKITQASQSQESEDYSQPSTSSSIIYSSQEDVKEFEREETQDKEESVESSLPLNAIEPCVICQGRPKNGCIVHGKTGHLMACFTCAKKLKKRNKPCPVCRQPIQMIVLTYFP

As to `COc1ccc(C2=N[C@@H](c3ccc(Cl)cc3)[C@@H](c3ccc(Cl)cc3)N2C(=O)N2CCC(N3CCCC3)CC2)c(OC(C)C)c1` [Example 5, [(4S,5R)-4,5-Bis-(4-chloro-phenyl)-2-(2-isopropoxy-4-methoxy-phenyl)-4,5-dihydro-imidazol-1-yl]-(4-pyrrolidin-1-yl-piperidin-1-yl)-methanone], the IC50 (usually the point on the concentration scale where inhibition reaches its midpoint) was 71 nM.

Values taken from US7893278B2, “CIS-imidazolines” (Hoffman-La Roche Inc., priority 2004, dated 2011).
